Key:
[1] = molecular target: Tyrosine-protein kinase JAK1 (Homo sapiens, UniProt P23458); experiment: Inhibition of JAK1 (unknown origin)
[2] = molecular target: T1, Tyrosine-protein kinase JAK3 (Homo sapiens, UniProt P52333)
T1 sequence (P52333 whole entry): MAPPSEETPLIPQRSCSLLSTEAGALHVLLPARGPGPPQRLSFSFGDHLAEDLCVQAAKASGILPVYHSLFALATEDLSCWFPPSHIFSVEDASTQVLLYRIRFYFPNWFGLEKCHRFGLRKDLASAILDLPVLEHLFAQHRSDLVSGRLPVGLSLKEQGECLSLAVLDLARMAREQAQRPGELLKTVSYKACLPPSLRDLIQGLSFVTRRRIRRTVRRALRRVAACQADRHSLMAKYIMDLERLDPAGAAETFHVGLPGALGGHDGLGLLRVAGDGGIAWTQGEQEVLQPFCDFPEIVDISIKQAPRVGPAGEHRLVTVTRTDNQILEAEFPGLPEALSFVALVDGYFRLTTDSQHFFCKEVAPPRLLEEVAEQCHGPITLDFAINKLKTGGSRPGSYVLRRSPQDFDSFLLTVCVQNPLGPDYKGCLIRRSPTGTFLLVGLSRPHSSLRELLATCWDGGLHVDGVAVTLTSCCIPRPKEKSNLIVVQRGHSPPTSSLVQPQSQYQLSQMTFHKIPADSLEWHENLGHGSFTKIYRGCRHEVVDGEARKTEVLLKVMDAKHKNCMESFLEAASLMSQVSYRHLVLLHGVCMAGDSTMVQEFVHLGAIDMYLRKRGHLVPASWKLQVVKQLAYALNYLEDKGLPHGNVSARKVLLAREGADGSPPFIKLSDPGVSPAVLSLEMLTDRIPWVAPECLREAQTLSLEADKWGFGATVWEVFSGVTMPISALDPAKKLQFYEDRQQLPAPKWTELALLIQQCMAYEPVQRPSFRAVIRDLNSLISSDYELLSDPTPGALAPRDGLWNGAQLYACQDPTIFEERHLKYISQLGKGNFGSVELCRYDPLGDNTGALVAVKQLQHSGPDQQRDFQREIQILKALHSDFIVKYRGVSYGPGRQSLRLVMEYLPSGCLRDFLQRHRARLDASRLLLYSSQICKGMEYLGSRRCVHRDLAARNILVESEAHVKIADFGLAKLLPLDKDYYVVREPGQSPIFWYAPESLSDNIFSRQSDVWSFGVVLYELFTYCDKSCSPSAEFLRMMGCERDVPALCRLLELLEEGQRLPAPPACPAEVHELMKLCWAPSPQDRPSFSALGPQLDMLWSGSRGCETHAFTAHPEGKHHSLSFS
Description: Inhibition of JAK3 (unknown origin)

[3] = molecular target: Tyrosine-protein kinase JAK2 (Homo sapiens, UniProt O60674)
Sequence of Tyrosine-protein kinase JAK2 (O60674 whole entry): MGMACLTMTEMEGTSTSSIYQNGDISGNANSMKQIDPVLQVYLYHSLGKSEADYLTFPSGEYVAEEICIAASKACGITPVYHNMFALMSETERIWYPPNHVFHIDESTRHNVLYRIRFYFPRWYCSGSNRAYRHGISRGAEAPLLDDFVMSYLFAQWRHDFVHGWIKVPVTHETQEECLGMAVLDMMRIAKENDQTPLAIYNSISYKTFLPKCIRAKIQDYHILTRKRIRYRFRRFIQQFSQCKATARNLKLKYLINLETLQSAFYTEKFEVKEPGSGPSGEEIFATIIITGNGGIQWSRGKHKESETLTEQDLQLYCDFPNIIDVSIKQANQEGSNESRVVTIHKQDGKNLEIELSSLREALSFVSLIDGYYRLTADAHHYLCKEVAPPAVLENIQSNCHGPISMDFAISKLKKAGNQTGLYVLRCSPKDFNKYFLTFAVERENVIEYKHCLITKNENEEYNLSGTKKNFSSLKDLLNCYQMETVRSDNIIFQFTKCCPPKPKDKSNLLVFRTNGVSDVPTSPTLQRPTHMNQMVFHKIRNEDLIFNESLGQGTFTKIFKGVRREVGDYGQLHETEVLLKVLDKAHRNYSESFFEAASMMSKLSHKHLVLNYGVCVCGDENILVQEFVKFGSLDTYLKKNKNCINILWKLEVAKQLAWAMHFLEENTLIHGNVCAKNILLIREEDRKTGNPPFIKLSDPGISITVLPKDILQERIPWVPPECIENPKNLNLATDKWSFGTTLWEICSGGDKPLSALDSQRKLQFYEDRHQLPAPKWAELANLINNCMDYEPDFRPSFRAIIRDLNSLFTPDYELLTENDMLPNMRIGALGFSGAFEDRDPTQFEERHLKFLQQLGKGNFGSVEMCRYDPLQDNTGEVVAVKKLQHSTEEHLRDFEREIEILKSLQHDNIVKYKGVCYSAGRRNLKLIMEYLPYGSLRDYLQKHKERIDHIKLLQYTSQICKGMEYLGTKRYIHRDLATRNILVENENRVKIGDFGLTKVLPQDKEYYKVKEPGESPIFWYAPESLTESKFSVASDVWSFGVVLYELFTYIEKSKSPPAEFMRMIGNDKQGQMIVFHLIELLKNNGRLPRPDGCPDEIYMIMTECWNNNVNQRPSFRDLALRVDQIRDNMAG
Description: Inhibition of JAK2 (unknown origin)

Sequence of Tyrosine-protein kinase JAK1 (P23458 whole entry): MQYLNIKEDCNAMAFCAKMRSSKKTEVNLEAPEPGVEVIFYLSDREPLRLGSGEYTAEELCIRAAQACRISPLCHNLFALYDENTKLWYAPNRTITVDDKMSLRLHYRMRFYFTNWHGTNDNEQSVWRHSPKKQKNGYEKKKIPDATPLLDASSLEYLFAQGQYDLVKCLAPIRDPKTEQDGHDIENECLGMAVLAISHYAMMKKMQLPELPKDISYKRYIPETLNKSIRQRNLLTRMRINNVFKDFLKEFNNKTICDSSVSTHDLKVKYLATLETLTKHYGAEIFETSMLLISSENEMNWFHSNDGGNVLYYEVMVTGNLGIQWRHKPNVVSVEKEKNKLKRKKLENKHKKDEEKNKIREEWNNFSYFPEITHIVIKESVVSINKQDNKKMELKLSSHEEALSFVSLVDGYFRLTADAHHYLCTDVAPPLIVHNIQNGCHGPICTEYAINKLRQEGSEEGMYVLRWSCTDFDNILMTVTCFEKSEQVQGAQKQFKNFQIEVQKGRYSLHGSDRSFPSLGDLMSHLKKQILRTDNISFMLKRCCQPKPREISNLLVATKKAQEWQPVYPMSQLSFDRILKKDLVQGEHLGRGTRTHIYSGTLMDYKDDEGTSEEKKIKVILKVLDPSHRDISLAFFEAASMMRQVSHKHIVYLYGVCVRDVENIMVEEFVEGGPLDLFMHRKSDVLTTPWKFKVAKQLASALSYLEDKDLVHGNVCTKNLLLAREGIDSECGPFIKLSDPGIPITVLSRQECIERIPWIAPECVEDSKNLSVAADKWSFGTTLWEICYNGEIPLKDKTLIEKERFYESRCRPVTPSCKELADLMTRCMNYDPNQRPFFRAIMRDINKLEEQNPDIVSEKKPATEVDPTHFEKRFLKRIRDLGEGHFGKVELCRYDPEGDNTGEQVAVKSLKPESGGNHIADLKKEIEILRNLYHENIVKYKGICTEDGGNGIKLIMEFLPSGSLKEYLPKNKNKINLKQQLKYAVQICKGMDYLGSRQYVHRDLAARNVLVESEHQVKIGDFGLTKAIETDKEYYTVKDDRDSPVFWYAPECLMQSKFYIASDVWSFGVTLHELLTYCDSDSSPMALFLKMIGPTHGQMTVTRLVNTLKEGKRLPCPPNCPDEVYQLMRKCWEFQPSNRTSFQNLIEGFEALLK

| IC50 [1] [nM] | IC50 [2] [nM] | IC50 [3] [nM] | Compound |
| --- | --- | --- | --- |
| 5020 | 5970 | 10000 | CN(c1ncnc2[nH]ccc12)N1CCC(C)(C(=O)NCC(F)(F)F)C1 (configuration not stated) |
| 18 | 13 | 361 | CN(c1ncnc2[nH]ccc12)N1CC[C@H](C(=O)NCC(F)(F)F)C1 |
| 1.6 | 8.3 | 16.1 | CN(c1ncnc2[nH]ccc12)N1CCCC(C(=O)NCC(F)F)C1 (configuration not stated) |
| 10000 | 10000 | 10000 | CN(c1ncnc2[nH]ccc12)N1CCCN(C(=O)CC(F)(F)F)CC1 |
| 309 | 339 | 2000 | CC1CCC(C(=O)NCC(F)(F)F)CN1N(C)c1ncnc2[nH]ccc12 (configuration not stated) |
| 15.1 | 77.4 | 165 | CN(CC(F)(F)F)C(=O)C1CCCN(N(C)c2ncnc3[nH]ccc23)C1 (configuration not stated) |
| 1.6 | 8 | 11.6 | CN(c1ncnc2[nH]ccc12)N1CCCC(C(=O)NCC#N)C1 (configuration not stated) |
| 21.3 | 83.2 | 148 | COCNC(=O)C1CCCN(N(C)c2ncnc3[nH]ccc23)C1 (configuration not stated) |
| 12 | 287 | 272 | CN(c1ncnc2[nH]ccc12)N1CCC(C(=O)NCC#N)CC1 |
| 0.16 | 15 | 8.5 | CN(c1ncnc2[nH]ccc12)N1CC[C@@H](C(=O)NCC(F)(F)F)C1 |
| 1860 | 1580 | 4800 | CN(c1ncnc2[nH]ccc12)N1CCCC(C)(C(=O)NCC#N)C1 (configuration not stated) |
| 3.3 | 25.1 | 43 | CN(c1ncnc2[nH]ccc12)N1CCC(C(=O)NCC#N)C1 (configuration not stated) |
| 1120 | 349 | 3500 | CN(c1ncnc2[nH]ccc12)N1CCCC(N2CCCC2=O)C1 (configuration not stated) |
| 2.9 | 16.1 | 33.2 | CN(c1ncnc2[nH]ccc12)N1CCCC(C(=O)NCC(F)(F)F)C1 (configuration not stated) |
| 35 | 188 |  | CN(c1ncnc2[nH]ccc12)N1CCCC(C(=O)NCCC#N)C1 (configuration not stated) |
| 155 | 518 | 817 | CN(c1ncnc2[nH]ccc12)N1CCCC(C(=O)N2CC(O)C2)C1 (configuration not stated) |
| 0.3 | 3.9 | 3.6 | CN(c1ncnc2[nH]ccc12)N1CCC[C@@H](C(=O)NCC#N)C1 |
| 1.9 | 29 | 36 | CN(c1ncnc2[nH]ccc12)N1CCC(C(=O)NCC(F)(F)F)C1 (configuration not stated) |
| 14 | 186 | 316 | CN(c1ncnc2[nH]ccc12)N1CCC(C(=O)NCC(F)(F)F)CC1 |
| 0.7 | 6.2 | 13 | CN(c1ncnc2[nH]ccc12)N1CCC[C@@H](C(=O)NCC(F)(F)F)C1 |
| 521 | 362 | 1430 | CC1CCC(C(=O)NCC#N)CN1N(C)c1ncnc2[nH]ccc12 (configuration not stated) |

Reference: ChEMBL document CHEMBL5104143, “Synthesis and evaluation of hydrazinyl-containing pyrrolo[2,3-d]pyrimidine series as potent, selective and oral JAK1 inhibitors for the treatment of rheumatoid arthritis” (Bioorg Med Chem Lett, 2022)
